In US5574161A, “7-(aminomethyl-oxa-7-aza-bicyclo[3.3.0]oct-7-yl)quinolonecarboxylic and 7-(aminomethyl-oxa-7-aza-bicyclo[3.3.0]oct-7-yl naphthyridonecarboxylic acid derivatives” (Bayer Aktiengesellschaft, priority 1992, dated 1996):

What was measured:
Format in all cases: cell-based
[1] = system: Providencia sp. 12012; assay: MIC, agar serial dilution, Providencia sp. 12012; settings: Iso-Sensitest agar, 37° C., about 20 hours
Protocol: (§1) The minimum inhibitory concentrations (MIC) were determined by means of serial dilution methods on Iso-Sensitest agar (Oxoid). For each substance to be tested, a series of agar plates was prepared which contained concentrations of the active compound which in each case decreased by a doubling dilution. The agar plates were inoculated with a Multipoint inoculator (Denley). For the inoculation, overnight cultures of the pathogens were used which had previously been diluted so that each inoculation spot contained about 10^4 colony-forming particles. The inoculated agar plates were incubated at 37° C. and the organism growth was recorded after about 20 hours. The MIC value (μg/ml) indicates the lowest concentration of active compound at which no growth was detected with the naked eye.
(§2) In the table below, the MIC values of some of the compounds according to the invention are listed in comparison with 1-cyclopropyl-6,8-difluoro-1,4-dihydro-7-(cis-2-oxa-5,8-diazabicyclo[4.3.0]non-8-yl)-4-oxo-3-quinoline-carboxylic acid hydrochloride (reference example A) and 8-chloro-1-cyclopropyl-6-fluoro-1,4-dihydro-7-(cis-2-oxa-5,8-diazabicyclo[4.3.0]non-8-yl)-4-oxo-3-quinoline-carboxylic acid hydrochloride (reference example B).

[2] = system: Enterococcus faecalis 27101; assay: MIC, agar serial dilution, Enterococcus faecalis 27101; settings: Iso-Sensitest agar, 37° C., about 20 hours
Protocol: as §1, §2

[3] = system: Staphylococcus aureus ICB 25701; assay: MIC, agar serial dilution, Staphylococcus aureus ICB 25701; settings: ICB25701, Iso-Sensitest agar, 37° C., about 20 hours
Protocol: as §1, §2

[4] = system: Enterobacter aerog. ICB 5240; assay: MIC, agar serial dilution, Enterobacter aerog. ICB 5240; settings: Iso-Sensitest agar, 37° C., about 20 hours
Protocol: as §1, §2

[5] = system: Enterobacter cloacae 2427; assay: MIC, agar serial dilution, Enterobacter cloacae 2427; settings: Iso-Sensitest agar, 37° C., about 20 hours
Protocol: as §1, §2

[6] = system: Pseudomonas aeruginosa ICB 308029; assay: MIC, agar serial dilution, Pseudomonas aeruginosa ICB 308029; settings: ICB308029, Iso-Sensitest agar, 37° C., about 20 hours
Protocol: as §1, §2

[7] = system: Morganella morganii 932; assay: MIC, agar serial dilution, Morganella morganii 932; settings: Iso-Sensitest agar, 37° C., about 20 hours
Protocol: as §1, §2

[8] = system: Micrococcus luteus 9341; assay: MIC, agar serial dilution, Micrococcus luteus 9341; settings: Iso-Sensitest agar, 37° C., about 20 hours
Protocol: as §1, §2

[9] = system: Escherichia coli 455/7; assay: MIC, agar serial dilution, Escherichia coli 455/7; settings: Iso-Sensitest agar, 37° C., about 20 hours
Protocol: as §1, §2

[10] = system: Klebsiella pneumoniae 8085; assay: MIC, agar serial dilution, Klebsiella pneumoniae 8085; settings: Iso-Sensitest agar, 37° C., about 20 hours
Protocol: as §1, §2

[11] = system: Enterococcus faecalis 9790; assay: MIC, agar serial dilution, Enterococcus faecalis 9790; settings: Iso-Sensitest agar, 37° C., about 20 hours
Protocol: as §1, §2

[12] = system: Staphylococcus aureus 133; assay: MIC, agar serial dilution, Staphylococcus aureus 133; settings: Iso-Sensitest agar, 37° C., about 20 hours
Protocol: as §1, §2

[13] = system: Staphylococcus aureus 1756; assay: MIC, agar serial dilution, Staphylococcus aureus 1756; settings: Iso-Sensitest agar, 37° C., about 20 hours
Protocol: as §1, §2

Row | MIC [1] [µg/mL] | MIC [2] [µg/mL] | MIC [3] [µg/mL] | MIC [4] [µg/mL] | MIC [5] [µg/mL] | MIC [6] [µg/mL] | MIC [7] [µg/mL] | MIC [8] [µg/mL] | MIC [9] [µg/mL] | MIC [10] [µg/mL] | MIC [11] [µg/mL] | MIC [12] [µg/mL] | MIC [13] [µg/mL] | Structure (SMILES)
1 | 0.125 | 0.25 | 2 | 32 | 0.125 | 64 | 0.125 | 0.5 | 4 | 0.06 | 0.25 | 0.06 | 0.06 | Cl.O=C(O)c1cn(C2CC2)c2c(F)c(N3C[C@@H]4NCCO[C@@H]4C3)c(F)cc2c1=O (relative stereo) [A, 1-cyclopropyl-6,8-difluoro-1,4-dihydro-7-(cis-2-oxa-5,8-diazabicyclo[4.3.0]non-8-yl)-4-oxo-3-quinoline-carboxylic acid hydrochloride]
2 | 0.06 | 0.125 | 0.5 | 16 | 0.25 | 64 | 0.06 | 0.25 | 2 | 0.06 | 0.125 | 0.03 | 0.015 | Cl.O=C(O)c1cn(C2CC2)c2c(Cl)c(N3C[C@@H]4NCCO[C@@H]4C3)c(F)cc2c1=O (relative stereo) [B, 8-chloro-1-cyclopropyl-6-fluoro-1,4-dihydro-7-(cis-2-oxa-5,8-diazabicyclo[4.3.0]non-8-yl)-4-oxo-3-quinoline-carboxylic acid hydrochloride]
3 | 0.06 | 0.06 | 1 | 8 | 0.06 | 16 | 0.03 | 0.25 | 2 | 0.06 | 0.125 | 0.06 | ≤ 0.015 | Cl.NCC12CN(c3c(F)cc4c(=O)c(C(=O)O)cn(C5CC5)c4c3F)CC1CCO2 (stereo not shown) [Example 1B, 7-(1-aminomethyl-2-oxa-7-aza-bicyclo[3.3.0]oct-7-yl) -1-cyclopropyl-6,8-difluoro-1,4-dihydro-4-oxo-3-quinolinecarboxylic acid hydrochloride]
4 | 0.03 | 0.03 | 0.25 | 8 | 0.06 | 32 | 0.03 | 0.125 | 1 | 0.03 | 0.06 | 0.015 | 0.0039 | NCC12CN(c3c(F)cc4c(=O)c(C(=O)O)cn(C5CC5)c4c3Cl)CC1CCO2.O=C(O)C(F)(F)F (stereo not shown) [Example 2B, 7-(1-aminomethyl-2-oxa-7-aza-bicyclo[3.3.0]oct-7-yl)-8-chloro-1-cyclopropyl-6-fluoro-1,4-dihydro-4-oxo-3-quinolinecarboxylic acid trifluoroacetate]
